One test has as its system T1, SlitOR29.
T1 construct: full-length UAS transgene in Drosophila melanogaster ab3A basiconic neurons in place of DmelOR22a/b; endogenous Drosophila Orco; GCaMP6s reporter co-expressed; with Odorant receptor coreceptor (endogenous, Drosophila melanogaster)
Put plainly: transcuticular calcium imaging (GCaMP6s), dose-response. The note with it: volatile stimulus; dose loaded on filter paper (in mineral oil), not a concentration; in vivo fly antenna; 1 s puff. Also noted: species or system Spodoptera littoralis.

The next test concerns the target T2, SlitOR6 (Spodoptera littoralis, UniProt I6LJY9).
T2 construct: gene OR6; full-length UAS transgene in Drosophila melanogaster at1 trichoid neurons in place of DmelOR67d; endogenous Drosophila Orco; GCaMP6m reporter co-expressed; with Odorant receptor coreceptor (endogenous, Drosophila melanogaster)
T2 sequence (I6LJY9 1-432): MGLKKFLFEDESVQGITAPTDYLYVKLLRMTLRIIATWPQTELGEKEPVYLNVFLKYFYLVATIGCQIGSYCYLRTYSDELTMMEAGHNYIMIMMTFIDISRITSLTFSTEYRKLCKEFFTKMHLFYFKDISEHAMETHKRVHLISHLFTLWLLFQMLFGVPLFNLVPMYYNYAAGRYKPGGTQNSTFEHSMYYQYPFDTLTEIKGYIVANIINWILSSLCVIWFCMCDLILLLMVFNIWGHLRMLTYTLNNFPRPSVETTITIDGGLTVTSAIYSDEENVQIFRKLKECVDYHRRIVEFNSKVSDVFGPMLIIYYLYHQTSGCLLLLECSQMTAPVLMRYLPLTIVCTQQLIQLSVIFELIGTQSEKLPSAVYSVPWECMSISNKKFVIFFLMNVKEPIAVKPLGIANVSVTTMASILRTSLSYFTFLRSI
T2 sequence (Q9VNB5 1-486 partner): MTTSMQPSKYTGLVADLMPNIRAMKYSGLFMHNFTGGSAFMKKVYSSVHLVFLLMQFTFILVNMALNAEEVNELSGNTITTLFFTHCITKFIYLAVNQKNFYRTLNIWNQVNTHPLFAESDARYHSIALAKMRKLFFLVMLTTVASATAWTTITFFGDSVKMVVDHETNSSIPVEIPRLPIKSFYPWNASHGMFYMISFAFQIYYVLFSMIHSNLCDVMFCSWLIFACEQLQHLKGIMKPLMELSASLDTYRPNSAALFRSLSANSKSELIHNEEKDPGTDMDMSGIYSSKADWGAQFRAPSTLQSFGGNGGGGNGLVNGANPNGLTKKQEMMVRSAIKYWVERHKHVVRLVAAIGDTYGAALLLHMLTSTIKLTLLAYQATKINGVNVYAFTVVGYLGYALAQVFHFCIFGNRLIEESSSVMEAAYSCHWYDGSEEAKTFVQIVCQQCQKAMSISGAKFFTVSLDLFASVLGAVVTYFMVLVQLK
Briefly: transcuticular calcium imaging (GCaMP6m), dose-response. As to conditions: volatile stimulus; dose loaded on filter paper (in hexane), not a concentration; in vivo fly antenna; 1 s puff.

In the case of `C=C/C(C)=C/CC=C(C)C` [(E)-ocimene], the EC50 in the test with SlitOR29 stood at 1.27 ± 0.37 µg.

On to `C/C=C/C/C=C\CCCCCCCCOC(C)=O` [(Z,E)-9,12-tetradecadienyl acetate], for which, at SlitOR6, the EC50 turned out to be 0.96 ± 0.14 µg. Take `CC/C=C\CCOC(C)=O` [(Z)-3-hexenyl acetate]: the EC50 in the test on SlitOR29 stood at 11.52 ± 0.70 µg.

The values are drawn from publication PMC10461100, “Transcuticular calcium imaging as a tool for the functional study of insect odorant receptors” (Frontiers in Molecular Neuroscience, 2023).
